Measured values from paper PMC5207785, “Arginine and Lysine Transporters Are Essential for Trypanosoma brucei” (PLoS ONE, 2017).

Tests used:
TbAAT5-3 [1] = biological target: T1, TbAAT5-3 (Trypanosoma brucei, UniProt Q57UX9); assay: competition of L-[3H]-arginine uptake in S. cerevisiae […]c; format: cell-based; conditions: 5000 µM; 50 μM L-arginine; pH 6.0
T1 construct: gene Tb08.4A8.362; full-length ORF (1377 bp incl. stop) in pDR197, untagged, expressed in S. cerevisiae 21.983c; nt 96 resolved as C (Asp)
T1 sequence (Q57UX9 1-458): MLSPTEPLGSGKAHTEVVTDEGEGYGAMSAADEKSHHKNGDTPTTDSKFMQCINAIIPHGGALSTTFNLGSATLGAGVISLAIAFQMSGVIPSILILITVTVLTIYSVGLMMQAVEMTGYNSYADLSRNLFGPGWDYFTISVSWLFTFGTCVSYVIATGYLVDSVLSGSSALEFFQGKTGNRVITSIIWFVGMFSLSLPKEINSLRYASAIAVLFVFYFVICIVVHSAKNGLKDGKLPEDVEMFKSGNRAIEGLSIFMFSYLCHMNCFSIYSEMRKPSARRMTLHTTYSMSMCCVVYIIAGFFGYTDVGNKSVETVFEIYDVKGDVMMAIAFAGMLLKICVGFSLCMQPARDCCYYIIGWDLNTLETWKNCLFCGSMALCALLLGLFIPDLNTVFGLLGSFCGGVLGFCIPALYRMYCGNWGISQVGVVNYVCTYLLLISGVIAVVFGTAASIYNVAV

TbAAT5-3 [2] = biological target: T1, TbAAT5-3; assay: as above; format: cell-based; conditions: 500 µM, 50 μM L-arginine, pH 6.0
TbAAT16-1 = biological target: T2, TbAAT16-1 (Trypanosoma brucei, UniProt Q381K2); assay: competition of L-[3H]-lysine uptake in S. cerevisiae […]Δ7AA; format: cell-based; conditions: 500 µM; 50 μM L-lysine; pH 4.5
T2 construct: gene Tb11.01.7500; full-length ORF (1389 bp incl. stop) in pDR197, untagged, expressed in S. cerevisiae 22Δ7AA; syntenic TREU927 gene Tb927.11.15840
T2 sequence (Q381K2 1-462): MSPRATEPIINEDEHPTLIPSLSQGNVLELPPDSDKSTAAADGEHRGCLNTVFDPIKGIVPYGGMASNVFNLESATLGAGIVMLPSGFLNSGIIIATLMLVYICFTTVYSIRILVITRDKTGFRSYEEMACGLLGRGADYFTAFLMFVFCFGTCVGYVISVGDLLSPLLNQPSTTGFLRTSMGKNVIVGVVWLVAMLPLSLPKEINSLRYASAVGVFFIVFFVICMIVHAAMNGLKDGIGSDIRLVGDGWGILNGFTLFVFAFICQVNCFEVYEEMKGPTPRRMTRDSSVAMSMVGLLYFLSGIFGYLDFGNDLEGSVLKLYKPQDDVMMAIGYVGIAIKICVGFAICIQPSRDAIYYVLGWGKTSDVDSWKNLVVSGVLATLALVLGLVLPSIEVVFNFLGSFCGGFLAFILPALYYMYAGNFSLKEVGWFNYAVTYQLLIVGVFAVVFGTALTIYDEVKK

[3] = substrate: N=C(N)NCCC[C@H](N)C(=O)O; assay: cells, lysate or membranes; format: cell-based, Trypanosoma brucei; conditions: labelled compound, 30 °C, 100 mM glucose, empty-vector background subtracted, pH of this assay not given
[4] = substrate: NCCCC[C@H](N)C(=O)O; assay: cells, lysate or membranes; conditions: labelled compound, 30 °C, 100 mM glucose, empty-vector background subtracted, pH of this assay not given

CCOC(=O)[C@@H](N)CCCNC(=N)N [Arginine ethyl ester]
L-[^3H]-arginine uptake rate (%) / 100x (TbAAT5-3 [1]): 72.5 ± 8.7%

COC(=O)[C@@H](N)CCCNC(=N)N [Arginine methyl ester]
L-[^3H]-arginine uptake rate (%) / 100x (TbAAT5-3 [1]): 67.6 ± 10.3%

N=C(N)NCCC[C@H](N)C(=O)Nc1ccc2ccccc2c1 [Arginine-β-naphthylamide]
L-[^3H]-arginine uptake rate (%) / 10x (TbAAT5-3 [2]; unspecific effect of the amphipathic compound not excluded): 69 ± 6.6%

N=C(N)NOCC[C@H](N)C(=O)O [Canavanine]
L-[^3H]-arginine uptake rate (%) / 10x (TbAAT5-3 [2]): 38.5 ± 4.5%

NCCCC[C@H](NC(=O)OCC1c2ccccc2-c2ccccc21)C(=O)O [Fmoc-Lysine, N-α-(9-fluorenylmethyloxycarbonyl)-L-lysine]
L-[^3H]-lysine uptake rate (%) / 10x (TbAAT16-1): 57.6 ± 6.9%

N=C(N)NCCCC[C@H](N)C(=O)O [Homoarginine]
L-[^3H]-arginine uptake rate (%) / 10x (TbAAT5-3 [2]): 25.6 ± 4.2%

NCCCC[C@H](N)C(=O)O [L-lysine]
L-[^3H]-arginine uptake rate (%) / 100x (TbAAT5-3 [1]): 56.5 ± 8.2%

NCCSC[C@H](N)C(=O)O [Thialysine, S-(2-aminoethyl)-L-cysteine]
L-[^3H]-lysine uptake rate (%) / 10x (TbAAT16-1): 35.3 ± 1.8%

B1: TbAAT5-3 (Trypanosoma brucei brucei TREU927) (protein)
chain: T1 sequence (Q57UX9 1-458)
notes: full-length ORF (1377 bp incl. stop) in pDR197, untagged, expressed in S. cerevisiae 21.983c; nt 96 resolved as C (Asp)
Km [3]: 3.6 ± 0.4 µM

B2: TbAAT16-1 (Trypanosoma brucei brucei TREU927) (protein)
chain: T2 sequence (Q381K2 1-462)
Km [4]: 4.3 ± 0.5 µM
